Laboratory results reported in US20140249135A1, “PIM KINASE INHIBITORS AND METHODS OF THEIR USE” (NOVARTIS AG, priority 2007, published 2014).
pIC50: −log10 of the molar value.

Columns and labels:
Assay type in all cases: biochemical
Pim2 kinase = Pim2 kinase (Homo sapiens, UniProt Q9P1W9); test: Pim2 ATP depletion assay; details: read-out: PIM2 IC50;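 further: Luciferase-based luminescent readout of ATP remaining after PIM2 phosphorylates a BAD peptide, final 5 nM enzyme, 4 µM ATP, 10 µM peptide, 2.5% DMSO, run to roughly half ATP consumption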
Pim3 kinase = Pim3 kinase (Homo sapiens, UniProt Q86V86); test: Pim3 ATP depletion assay; details: read-out: PIM3 IC50
Pim1 kinase = Pim1 kinase (Homo sapiens, UniProt P11309); test: Pim1 ATP depletion assay; details: Pim1 ATP depletion assay; read-out: PIM1 IC50;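 further: Luciferase-luciferin luminescence readout of residual ATP after PIM1 transfers phosphate to a peptide substrate, 40 µM ATP added, reaction run to roughly half ATP consumption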

Measured: pIC50

Chain of Pim2 kinase (Q9P1W9 whole entry): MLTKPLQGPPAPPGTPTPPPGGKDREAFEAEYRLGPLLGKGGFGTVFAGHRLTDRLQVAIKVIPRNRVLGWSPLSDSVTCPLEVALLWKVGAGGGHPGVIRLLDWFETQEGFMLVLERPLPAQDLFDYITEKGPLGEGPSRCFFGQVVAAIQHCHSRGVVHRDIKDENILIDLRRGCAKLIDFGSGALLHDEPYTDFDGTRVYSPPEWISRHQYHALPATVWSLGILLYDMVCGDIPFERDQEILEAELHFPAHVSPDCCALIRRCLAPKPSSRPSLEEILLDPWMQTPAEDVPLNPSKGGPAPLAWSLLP
Chain of Pim1 kinase (P11309 whole entry): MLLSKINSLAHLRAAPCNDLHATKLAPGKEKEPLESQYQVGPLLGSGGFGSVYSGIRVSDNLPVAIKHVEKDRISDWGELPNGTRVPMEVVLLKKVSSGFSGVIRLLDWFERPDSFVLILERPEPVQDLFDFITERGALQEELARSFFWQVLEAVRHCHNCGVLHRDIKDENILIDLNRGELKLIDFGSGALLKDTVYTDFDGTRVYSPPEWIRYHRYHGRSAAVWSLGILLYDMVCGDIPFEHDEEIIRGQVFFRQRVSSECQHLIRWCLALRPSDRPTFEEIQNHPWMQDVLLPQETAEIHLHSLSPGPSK

Cc1ccnc(-c2ccc(N)c(C(=O)Nc3cnccc3N3CCC[C@H](N)C3)n2)c1F [Example 707, 5-Amino-3′-fluoro-4′-methyl-[2,2′]bipyridinyl-6-carboxylic acid (3-amino-3,4,5,6-tetra-hydro-2H-[1,4′]bipyridinyl-3′-yl)-amide]
> 6.00: all assays above

Cc1nc(-c2ccc(N)c(C(=O)Nc3cnccc3N3CCC[C@H](N)C3)n2)ccc1F [Example 708, 5-Amino-5′-fluoro-6′-methyl-[2,2′]bipyridinyl-6-carboxylic acid (3-amino-3,4,5,6-tetra-hydro-2H-[1,4′]bipyridinyl-3′-yl)-amide]
> 6.00: all assays above

Cc1ccc(F)c(-c2ccc(N)c(C(=O)Nc3cnccc3N3CCC[C@H](N)C3)n2)n1 [Example 709, 5-Amino-3′-fluoro-6′-methyl-[2,2′]bipyridinyl-6-carboxylic acid (3-amino-3,4,5,6-tetra-hydro-2H-[1,4′]bipyridinyl-3′-yl)-amide]
> 6.00: all assays above

Nc1ccc(-c2cccc(Cl)n2)nc1C(=O)Nc1cnccc1N1CCC[C@H](N)C1 [Example 710, 5-Amino-6′-chloro-[2,2′]bi-pyridinyl-6-carboxylic acid (3-amino-3,4,5,6-tetrahydro-2H-[1,4′]bipyridinyl-3′-yl)-amide]
> 6.00: all assays above

Nc1cccc(-c2ccc(N)c(C(=O)Nc3cnccc3N3CCC[C@H](N)C3)n2)n1 [Example 711, 5,6′-Diamino-[2,2′]bipyridinyl-6-carboxylic acid (3-amino-3,4,5,6-tetrahydro-2H-[1,4′]bi-pyridinyl-3′-yl)-amide]
> 6.00: all assays above

Nc1ccc(-c2cccc(F)n2)nc1C(=O)Nc1cnccc1N1CCC[C@H](N)C1 [Example 712, 5-Amino-6′-fluoro-[2,2′]bi-pyridinyl-6-carboxylic acid (3-amino-3,4,5,6-tetrahydro-2H-[1,4′]bipyridinyl-3′-yl)-amide]
> 6.00: all assays above

Nc1ccc(-c2ccc(Cl)cn2)nc1C(=O)Nc1cnccc1N1CCC[C@H](N)C1 [Example 713, 5-Amino-5′-chloro-[2,2′]bi-pyridinyl-6-carboxylic acid (3-amino-3,4,5,6-tetrahydro-2H-[1,4′]bipyridinyl-3′-yl)-amide]
> 6.00: all assays above

Nc1ccc(-c2ccc(C(F)(F)F)cn2)nc1C(=O)Nc1cnccc1N1CCC[C@H](N)C1 [Example 714, 5-Amino-5′-trifluoromethyl-[2,2′]bipyridinyl-6-carboxylic acid (3-amino-3,4,5,6-tetra-hydro-2H-[1,4′]bipyridinyl-3′-yl)-amide]
> 6.00: all assays above

Nc1ccc(-c2cc(C(F)(F)F)ccn2)nc1C(=O)Nc1cnccc1N1CCC[C@H](N)C1 [Example 715, 5-Amino-4′-trifluoromethyl-[2,2′]bipyridinyl-6-carboxylic acid (3-amino-3,4,5,6-tetra-hydro-2H-[1,4′]bipyridinyl-3′-yl)-amide]
> 6.00: all assays above

Nc1ccc(-c2ncccc2N)nc1C(=O)Nc1cnccc1N1CCC[C@H](N)C1 [Example 716, 5,3′-Diamino-[2,2′]bipyridinyl-6-carboxylic acid (3-amino-3,4,5,6-tetrahydro-2H-[1,4′]bi-pyridinyl-3′-yl)-amide]
> 6.00: all assays above

CCc1ccnc(-c2ccc(N)c(C(=O)Nc3cnccc3N3CCC[C@H](N)C3)n2)c1 [Example 717, 5-Amino-4′-ethyl-[2,2′]bi-pyridinyl-6-carboxylic acid (3-amino-3,4,5,6-tetrahydro-2H-[1,4′]bipyridinyl-3′-yl)-amide]
> 6.00: all assays above

Nc1ccc(-c2cccc(C(F)(F)F)n2)nc1C(=O)Nc1cnccc1N1CCC[C@H](N)C1 [Example 718, 5-Amino-6′-trifluoromethyl-[2,2′]bipyridinyl-6-carboxylic acid (3-amino-3,4,5,6-tetra-hydro-2H-[1,4′]bipyridinyl-3′-yl)-amide]
> 6.00: all assays above

Nc1ccc(-c2ncccc2Cl)nc1C(=O)Nc1cnccc1N1CCC[C@H](N)C1 [Example 719, 5-Amino-3′-chloro-[2,2′]bi-pyridinyl-6-carboxylic acid (3-amino-3,4,5,6-tetrahydro-2H-[1,4′]bipyridinyl-3′-yl)-amide]
> 6.00: all assays above

Nc1ccc(-c2ncc(C(F)(F)F)cc2Cl)nc1C(=O)Nc1cnccc1N1CCC[C@H](N)C1 [Example 720, 5-Amino-3′-chloro-5′-trifluoro-methyl-[2,2′]bipyridinyl-6-carboxylic acid (3-amino-3,4,5,6-tetrahydro-2H-[1,4′]bi-pyridinyl-3′-yl)-amide]
> 6.00: all assays above

Nc1ccc(-c2ncccc2C(F)(F)F)nc1C(=O)Nc1cnccc1N1CCC[C@H](N)C1 [Example 721, 5-Amino-3′-trifluoromethyl-[2,2′]bipyridinyl-6-carboxylic acid (3-amino-3,4,5,6-tetra-hydro-2H-[1,4′]bipyridinyl-3′-yl)-amide]
> 6.00: all assays above

COc1cncc(-c2ccc(N)c(C(=O)Nc3cnccc3N3CCC[C@H](N)C3)n2)n1 [Example 722, 3-Amino-6-(6-methoxy-pyrazin-2-yl)-pyridine-2-carboxylic acid (3-amino-3,4,5,6-tetrahydro-2H-[1,4′]bipyridinyl-3′-yl)-amide]
> 6.00: all assays above

CCOc1cccc(-c2ccc(N)c(C(=O)Nc3cnccc3N3CCC[C@H](N)C3)n2)n1 [Example 723, 5-Amino-6′-ethoxy-[2,2′]bi-pyridinyl-6-carboxylic acid (3-amino-3,4,5,6-tetrahydro-2H-[1,4′]bipyridinyl-3′-yl)-amide]
> 6.00: all assays above

Cc1ccnc(-c2ccc(N)c(C(=O)Nc3cnccc3N3CCC[C@H](N)C3)n2)c1 [Example 724, 5-Amino-4′-methyl-[2,2′]bi-pyridinyl-6-carboxylic acid (3-amino-3,4,5,6-tetrahydro-2H-[1,4′]bipyridinyl-3′-yl)-amide]
> 6.00: all assays above
